Laboratory results from paper PMC3532212 (PLoS ONE, 2012).
Where “and” joins values, the source holds several entries; their conditions need not be identical. Identical values can stand only once. Entries after “also recorded” stand apart in the source; their conditions may differ. Each block holds one compound with its values, some of them ahead of it.

How the values were obtained:
Human S1P1 = target: T1, Human S1P1 (Homo sapiens, UniProt P21453); experiment: B arrestin recruitment assay, Tango EDG1-bla U2OS cells; assay type: cell-based; conditions: 18 hours agonist incubation
T1 construct: host or cells: U2OS (Tango EDG1-bla)
T1 sequence (P21453 whole entry): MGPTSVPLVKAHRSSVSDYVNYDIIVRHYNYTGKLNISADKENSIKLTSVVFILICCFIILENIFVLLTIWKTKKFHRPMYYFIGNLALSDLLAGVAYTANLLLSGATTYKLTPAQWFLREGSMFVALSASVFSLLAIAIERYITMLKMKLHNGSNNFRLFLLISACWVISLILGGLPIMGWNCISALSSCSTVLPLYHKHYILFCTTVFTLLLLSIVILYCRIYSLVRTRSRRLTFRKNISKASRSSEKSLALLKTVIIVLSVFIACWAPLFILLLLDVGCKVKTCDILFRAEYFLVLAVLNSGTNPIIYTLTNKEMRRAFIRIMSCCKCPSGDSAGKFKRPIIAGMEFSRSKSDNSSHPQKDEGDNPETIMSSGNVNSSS
Experimental: (§1) Tango™ EDG1-bla U2OS cells (Human S1P1), Tango™ EDG3-bla U2OS cells (human S1P3), Tango™ EDG6-bla U2OS cells (human S1P4) and Tango™ EDG8-bla U2OS cells (human S1P5) cell lines were cultured and assayed according to manufacturers instructions with one modification; agonists incubated on the cells for 18 hours prior to addition of the GenBlazer substrate. Final DMSO concentration in the assay is 1%.

human S1P3 = target: T2, human S1P3 (Homo sapiens, UniProt Q99500); experiment: B arrestin recruitment assay, Tango EDG3-bla U2OS cells; assay type: cell-based; conditions: 18 hours agonist incubation
T2 construct: host or cells: U2OS (Tango EDG3-bla)
T2 sequence (Q99500 whole entry): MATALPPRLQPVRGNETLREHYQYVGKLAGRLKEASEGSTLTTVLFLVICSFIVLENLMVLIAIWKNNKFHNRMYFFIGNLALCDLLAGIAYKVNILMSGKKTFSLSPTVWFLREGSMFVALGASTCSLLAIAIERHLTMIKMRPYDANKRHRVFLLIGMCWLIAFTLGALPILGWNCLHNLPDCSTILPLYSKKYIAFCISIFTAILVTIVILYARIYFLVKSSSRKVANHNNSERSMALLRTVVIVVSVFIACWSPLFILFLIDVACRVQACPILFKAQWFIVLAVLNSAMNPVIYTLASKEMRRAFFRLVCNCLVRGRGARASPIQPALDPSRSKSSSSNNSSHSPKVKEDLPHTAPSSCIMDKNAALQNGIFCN
Experimental: as §1

human S1P5 = target: T3, human S1P5 (Homo sapiens, UniProt Q9H228); experiment: B arrestin recruitment assay, Tango EDG8-bla U2OS cells; assay type: cell-based; conditions: 18 hours agonist incubation
T3 construct: host or cells: U2OS (Tango EDG8-bla)
T3 sequence (Q9H228 whole entry): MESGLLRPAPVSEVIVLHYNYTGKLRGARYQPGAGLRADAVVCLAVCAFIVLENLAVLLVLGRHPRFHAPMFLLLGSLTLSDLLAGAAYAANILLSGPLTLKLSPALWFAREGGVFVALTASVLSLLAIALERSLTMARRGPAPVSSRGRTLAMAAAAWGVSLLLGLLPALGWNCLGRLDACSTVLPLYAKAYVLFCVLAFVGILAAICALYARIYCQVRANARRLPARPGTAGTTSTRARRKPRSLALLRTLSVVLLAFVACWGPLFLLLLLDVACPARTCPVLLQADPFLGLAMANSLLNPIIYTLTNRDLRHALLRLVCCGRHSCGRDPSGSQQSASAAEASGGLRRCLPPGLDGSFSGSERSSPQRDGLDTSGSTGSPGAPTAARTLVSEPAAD
Experimental: as §1

anesthetized rats = experiment: Left ventricular contractility (LV dP/dtmax) in anesthetized rats; assay type: in vivo; conditions: anesthetized rat
Experimental: The cardiovascular effects of FTY720 and BAF312 were tested in anesthetized rats (180–200 g). In brief, male Sprague Dawley rats (Charles River) were anesthetized with Inactin (110 mg/kg i.p.) and a tracheotomy performed. The femoral artery and veins were catheterized for measurement of mean arterial pressure and heart rate, collection of blood samples at 20-min intervals (0.2 mL/sample), and for compound infusion/hydration as previously described, [24]; blood samples were also withdrawn in vehicle-treated control rats. FTY720, infused as a hydrochloride salt (0.1, 0.3, 1.0 mg/kg/20-min free base equivalent solubilized in a 100% PEG-400 vehicle), or BAF312 (0.5, 1.5, 5.0 mg/kg/20-min solubilized in a 100% PEG-400 vehicle) were administered via three escalating 20-min infusions (0.011 mL/min) followed by a 1-hr post-treatment period. […] In a separate group of anesthetized rats in which left ventricular (LV) contractility was also recorded with a Millar pressure transducer introduced into the left ventricle, BAF312 was infused in the same dosing regimen as the studies described above (0.5, 1.5, 5.0 mg/kg/20-min solubilized in a 100% PEG-400 vehicle) and effects on LV dP/dtmax were recorded.

[1] = test system: conscious, telemetry-instrumented rats; experiment: Telemetry-instrumented conscious rats, repeat-dosing hemodynamics; assay type: in vivo; conditions: conscious rat; for mean arterial pressure, average change in 24-mean values: 14-days of treatment; for mean arterial pressure increase relative to baseline, 24-hr mean over the treatment period: vehicle 3.7±0.5
Experimental: Mean arterial pressure was assessed in conscious, freely moving male Sprague Dawley rats (n = 6–8/group; Charles River) instrumented with telemetry transmitters (DSI-Ponemah) and housed in metabolism cages as previously described, [26]. Tested compounds were solubilized in a 0.5% Methylcellulose/0.015% Tween 80 vehicle that was also dosed alone (p.o./QD, 5 mL/kg) as a control in the study. FTY720 was administered p.o. at 0.3, 1.0, 3.0, 10.0 mg/kg p.o. as a single dose or p.o./QD at 0.5, 1.5, and 5.0 mg/kg in a chronic study. […] Mean arterial pressure and heart rate are shown as 1-hr and/or 24-hr mean values±SEM as described in the results. Blood samples in satellite rats were withdrawn at various timepoints as described in the results for analysis of plasma concentrations of the parent compound and, in the case of FTY720, also the phosphorylated metabolite, (S)-FTY720-P. Statistical analysis for the single-dose acute studies was based on one-way ANOVA to compare the treatment groups vs. vehicle for each time period after dosing (0–24 hrs, 24–48 hrs, and 48–72 hrs); statistical significance (p<0.05) was detected by Dunnett’s post-hoc test to compare treatment with vehicle controls. The statistical analysis in the chronic studies were based on one-way ANOVA with repeated measures to compare the treatment arms; statistical significance (p<0.05) was detected by Dunnett’s post-hoc test to compare treatment with vehicle controls.

rats [2] = experiment: Urinary sodium excretion in rats; assay type: in vivo, rat; conditions: subset of telemetry rats administered FTY720; unpublished preliminary observation
patients = test system: patients; set-up: method as in PMID 20089954; conditions: 1-yr trial; cited from earlier work
rats [3] = test system: rats; set-up: method as in PMID 12352874; conditions: FTY720 5 mg/kg/d; cited from earlier work

- EC50 (Human S1P1): 2.5 nM
- EC50 (human S1P3): > 10 µM
- EC50 (human S1P5): 0.8 nM
- decrease in dP/dt (anesthetized rats; BAF312, 5.0 mg/kg dose group): not maintained
- LV dP/dtmax, below values in vehicle control animals (anesthetized rats; BAF312, end of the 1.5 mg/kg i.v. infusion): −5±4%
SMILES: CCc1cc(/C(C)=N/OCc2ccc(C3CCCCC3)c(C(F)(F)F)c2)ccc1CN1CC(C(=O)O)C1 [BAF312]
- mean arterial pressure, average change in 24-mean values ([1]; BAF312 0.3 mg/kg/d p.o./QD): 3.0±0.5 mmHg
- 24-hr mean change in heart rate ([1]; BAF312 3 mg/kg dose group (so in the source), 14-day study): −2±2 beats/min
- mean arterial pressure, average change in 24-mean values ([1]; BAF312 3.0 mg/kg/d p.o./QD): 1.1±0.5 mmHg
- 24-hr mean change in heart rate ([1]; BAF312 10 mg/kg dose group (so in the source), 14-day study): −2±3 beats/min
- 24-hr mean change in heart rate ([1]; BAF312 30 mg/kg dose group, 14-day study): −2±4 beats/min
- mean arterial pressure, average change in 24-mean values ([1]; BAF312 30 mg/kg/d p.o./QD): 0.1±0.5 mmHg
- effect on blood pressure / mean arterial pressure during repeat dosing ([1]; BAF312 0.3, 3.0, 30.0 mg/kg/d p.o.): no significant effect; also recorded: no significant increase
- bradycardia during repeat dosing ([1]; BAF312 any dose group, 14-day study): no bradycardia was observed

SMILES: CCCCCCCCc1ccc(CCC(N)(CO)CO)cc1 [FTY720]
- 24-hr mean change in heart rate ([1]; FTY720 0.5 mg/kg p.o./QD repeat dosing, vehicle −2±1): 11±2 beats/min
- mean arterial pressure increase relative to baseline, 24-hr mean over the treatment period ([1]; FTY720 0.5 mg/kg/d p.o./QD, 0.5 mg/kg/day): 8.4 mmHg and 8.4±0.4 mmHg
- 24-hr mean change in heart rate ([1]; FTY720 1.5 mg/kg p.o./QD repeat dosing, vehicle −2±1): 1±1 beats/min
- mean arterial pressure increase relative to baseline, 24-hr mean over the treatment period ([1]; FTY720 1.5 mg/kg/d p.o./QD, 1.5 mg/kg/day): 12.8 mmHg and 12.8±0.4 mmHg
- 24-hr mean change in heart rate ([1]; FTY720 5.0 mg/kg p.o./QD repeat dosing, vehicle −2±1): 1±3 beats/min
- mean arterial pressure increase relative to baseline, 24-hr mean over the treatment period ([1]; FTY720 5.0 mg/kg/d p.o./QD, 5 mg/kg/day): 16.2 mmHg and 16.2±0.8 mmHg
- bradycardia during repeat dosing ([1]; FTY720 0.5, 1.5, 5.0 mg/kg/d p.o.): no acute or sustained bradycardia
- urinary sodium excretion (rats [2]): reduction in urinary sodium excretion
- hypertension in patients (patients): 2–3 mmHg
- 24-hr sodium excretion values and fractional excretion of sodium (rats [3]): elicited reductions
